# Data as given in patent publication US11214803B2, “Modulators of YAP1 expression” (Ionis Pharmaceuticals, Inc., priority 2019, dated 2022).
# Strand notation (5' to 3'): a small letter for the sugar, then the base; units joined by * are phosphorothioate-linked, units joined directly phosphodiester-linked; [ ] holds rarer units or linkages, { } end groups; capitals alone tell only the bases. k = constrained ethyl (cEt); [5mC] = 5-methylcytosine; d = 2'-deoxy (DNA)
# Test system: Yap1 mRNA
# Assay: Antisense inhibition of human Yap1 in A-431 cells by cEt gapmers, single dose (Example 3, RTS36584)
# Type: cell-based
# Method in brief: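 Read-out is Yap1 mRNA as percent of untreated control, by quantitative RT-PCR normalized to total RNA (RiboGreen). Cells (A-431) received 2,000 nM of 3-10-3 cEt phosphorothioate gapmer via free uptake for roughly 48 hours.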
# [1] = Table 8, A-431 cells, 5,000 cells per well, free uptake, 2,000 nM, approximately 48 hours, RTS36584, normalized to RIBOGREEN, Yap1 mRNA relative to untreated control cells
# [2] = Table 34, Yap1 mRNA as percent of untreated control, 3-10-3 cEt gapmers targeting SEQ ID NO: 1 and 2, single dose
# [3] = Table 12, A-431 cells, 5,000 cells per well, free uptake, 2,000 nM modified oligonucleotide, approx. 48 hours, RTS36584, normalized to RIBOGREEN, Yap1 mRNA relative to untreated control cells
# [4] = Table 35, Yap1 mRNA as percent of untreated control, 3-10-3 cEt gapmers targeting SEQ ID NO: 1 and 2, single dose
# [5] = Table 29, Yap1 mRNA as percent of untreated control, 3-10-3 cEt gapmers targeting SEQ ID NO.: 1, and 2
# [6] = Table 13, A-431 cells, 5,000 cells per well, free uptake, 2,000 nM modified oligonucleotide, approx. 48 hours, RTS36584, normalized to RIBOGREEN, Yap1 mRNA relative to untreated control cells
# [7] = Table 10, A-431 cells, 5,000 cells per well, free uptake, 2,000 nM oligonucleotide, approx. 48 hours, primer probe set RTS36584, Yap1 mRNA normalized to RIBOGREEN, percent of untreated control
# [8] = Table 28, Yap1 mRNA as percent of untreated control, 3-10-3 cEt gapmers targeting SEQ ID NO.: 1, and 2
# [9] = Table 11, A-431 cells, 5,000 cells per well, free uptake, 2,000 nM oligonucleotide, approx. 48 hours, primer probe set RTS36584, Yap1 mRNA normalized to RIBOGREEN, percent of untreated control
# [10] = Table 26, Yap1 mRNA by 3-10-3 cEt gapmers targeting SEQ ID NO.: 1, and 2, percent of untreated control
# [11] = Table 27, Yap1 mRNA by 3-10-3 cEt gapmers targeting SEQ ID NO.: 1, and 2, percent of untreated control
# [12] = Table 9, A-431 cells, 5,000 cells per well, free uptake, 2,000 nM, approximately 48 hours, RTS36584, normalized to RIBOGREEN, Yap1 mRNA relative to untreated control cells
substance,measurement,setting,value
958371 (antisense kA*k[5mC]*k[5mC]*dA*dA*d[5mC]*dT*dA*dT*dT*dA*d[5mC]*dT*kT*k[5mC]*kA) [Compound 958371],YAP1 (% UTC),[1],2 % UTC
1075540 (kG*k[5mC]*kT*dT*dA*dA*dG*dG*dG*dA*dT*dG*dG*kA*kA*k[5mC]; antisense) [compound 1075540],YAP1 (% UTC),[2],78 % UTC
958614 (antisense kG*kT*k[5mC]*dT*dT*dG*dT*dT*d[5mC]*dT*dT*dA*dT*kG*kG*kT) [Compound 958614],YAP1 (% UTC),[3],6 % UTC
1074932 (antisense kG*kG*kA*dG*dA*d[5mC]*dT*dA*dT*dA*d[5mC]*dA*dA*k[5mC]*kA*kG) [compound 1074932],YAP1 (% UTC),[2],88 % UTC
1075285 (antisense kT*kA*kT*dA*d[5mC]*dA*dT*dA*dG*dT*d[5mC]*dA*dA*kT*kT*k[5mC]) [compound 1075285],YAP1 (% UTC),[4],60 % UTC
1074837 (kT*kA*kA*d[5mC]*dA*dA*d[5mC]*dA*dT*dG*d[5mC]*dT*dT*kG*k[5mC]*kG; antisense) [compound 1074837],YAP1 (% UTC),[4],11 % UTC
1074959 (antisense kT*kT*kA*dA*d[5mC]*d[5mC]*d[5mC]*dG*dG*dG*dT*dT*dT*kT*kT*kG) [compound 1074959],YAP1 (% UTC),[5],128 % UTC
958805 (k[5mC]*kA*kA*dG*dA*dT*dA*dA*dT*d[5mC]*dA*dT*d[5mC]*k[5mC]*kT*k[5mC]; antisense) [Compound 958805],YAP1 (% UTC),[6],6 % UTC
1076180 (kA*kT*kA*dA*dT*dT*dA*dG*d[5mC]*d[5mC]*dA*dA*d[5mC]*k[5mC]*kA*k[5mC]; antisense) [compound 1076180],YAP1 (% UTC),[2],42 % UTC
958512 (k[5mC]*kA*kT*dT*d[5mC]*d[5mC]*dA*d[5mC]*dT*dA*d[5mC]*d[5mC]*dA*k[5mC]*kA*k[5mC]; antisense) [Compound 958512],YAP1 (% UTC),[7],14 % UTC
1075214 (kA*kA*k[5mC]*dA*dA*dT*dA*dA*dA*dG*dG*dG*dT*k[5mC]*k[5mC]*kT; antisense) [compound 1075214],YAP1 (% UTC),[8],45 % UTC
958738 (antisense kT*k[5mC]*kT*dA*dT*dA*dT*dG*dT*dT*dT*d[5mC]*d[5mC]*k[5mC]*k[5mC]*k[5mC]) [Compound 958738],YAP1 (% UTC),[9],11 % UTC
958419 (antisense kT*kA*kA*dG*dA*dG*d[5mC]*d[5mC]*dT*dA*d[5mC]*d[5mC]*dT*kG*kA*k[5mC]) [Compound 958419],YAP1 (% UTC),[1],68 % UTC
958525 (kA*kT*kG*dA*dA*dG*dG*dT*dA*dA*dA*d[5mC]*d[5mC]*kA*k[5mC]*kT; antisense) [Compound 958525],YAP1 (% UTC),[6],3 % UTC
958414 (antisense k[5mC]*kA*kG*dA*dA*dT*dT*d[5mC]*d[5mC]*d[5mC]*dA*dA*dG*k[5mC]*kT*kA) [Compound 958414],YAP1 (% UTC),[1],73 % UTC
1076140 (kA*k[5mC]*kG*dA*dA*dA*dA*dA*dA*dG*d[5mC]*d[5mC]*dA*kA*k[5mC]*kA; antisense) [compound 1076140],YAP1 (% UTC),[10],28 % UTC
1075917 (antisense kA*kG*k[5mC]*dA*dA*dA*dA*dA*dG*dT*dG*dA*dT*kA*kT*kG) [compound 1075917],YAP1 (% UTC),[11],55 % UTC
958574 (k[5mC]*kT*kG*dG*d[5mC]*dA*dA*dA*dT*dT*dA*dT*dA*kG*kG*k[5mC]; antisense) [Compound 958574],YAP1 (% UTC),[3],13 % UTC
1074894 (antisense kT*kG*k[5mC]*dT*dG*dA*dA*dG*dT*dT*dT*dA*dG*k[5mC]*k[5mC]*kT) [compound 1074894],YAP1 (% UTC),[8],79 % UTC
958486 (kT*kT*kA*dG*dA*dG*d[5mC]*d[5mC]*dA*dA*d[5mC]*dT*dG*kT*kG*kA; antisense) [Compound 958486],YAP1 (% UTC),[12],9 % UTC
1075918 (antisense k[5mC]*kT*kT*dA*dA*dA*d[5mC]*dT*dA*dA*d[5mC]*dT*dG*kT*kT*kG) [compound 1075918],YAP1 (% UTC),[8],82 % UTC
958654 (kA*kA*kT*dG*dG*dA*dG*dT*dG*dG*d[5mC]*d[5mC]*dG*kG*kG*k[5mC]; antisense) [Compound 958654],YAP1 (% UTC),[3],110 % UTC
958796 (antisense kA*kT*kT*dA*dT*dA*dT*dG*dG*dT*dT*dG*d[5mC]*kT*kT*k[5mC]) [Compound 958796],YAP1 (% UTC),[12],3 % UTC
958746 (antisense kG*kT*kT*dA*dT*d[5mC]*d[5mC]*dT*d[5mC]*dT*dA*dT*dA*kG*kT*k[5mC]) [Compound 958746],YAP1 (% UTC),[12],22 % UTC
1076565 (k[5mC]*kA*kT*dT*dA*dA*dG*dT*d[5mC]*dA*d[5mC]*dA*dG*k[5mC]*kA*kT; antisense) [compound 1076565],YAP1 (% UTC),[4],74 % UTC
1074476 (kT*kT*k[5mC]*d[5mC]*dG*dA*d[5mC]*dA*dA*dA*dA*d[5mC]*d[5mC]*kA*kA*k[5mC]; antisense) [compound 1074476],YAP1 (% UTC),[10],18 % UTC
958570 (kT*kG*kT*dA*dA*dT*dT*d[5mC]*dA*dT*dA*dT*dA*k[5mC]*k[5mC]*k[5mC]; antisense) [Compound 958570],YAP1 (% UTC),[6],5 % UTC
958375 (antisense kA*kA*kA*dG*d[5mC]*d[5mC]*dT*dT*dA*dG*dA*dG*dT*k[5mC]*kA*kA) [Compound 958375],YAP1 (% UTC),[1],2 % UTC
958388 (antisense kG*kG*kA*dG*dG*d[5mC]*dG*d[5mC]*dG*d[5mC]*dG*d[5mC]*dA*kT*kT*kG) [Compound 958388],YAP1 (% UTC),[1],112 % UTC
1076301 (kG*kT*kA*dT*dA*dA*dG*dA*d[5mC]*d[5mC]*dT*dT*dG*kG*kG*kA; antisense) [compound 1076301],YAP1 (% UTC),[11],34 % UTC
958519 (k[5mC]*k[5mC]*k[5mC]*d[5mC]*dT*dA*dG*dG*d[5mC]*dA*d[5mC]*dT*dA*kT*k[5mC]*k[5mC]; antisense) [Compound 958519],YAP1 (% UTC),[3],20 % UTC
958584 (k[5mC]*k[5mC]*k[5mC]*dT*dA*dA*dG*d[5mC]*dT*dA*dA*dA*dG*k[5mC]*kT*kA; antisense) [Compound 958584],YAP1 (% UTC),[3],74 % UTC
1075565 (kT*kA*kT*dA*dT*dA*dA*d[5mC]*dA*dG*dG*d[5mC]*d[5mC]*kA*k[5mC]*k[5mC]; antisense) [compound 1075565],YAP1 (% UTC),[11],52 % UTC
958745 (antisense kT*k[5mC]*k[5mC]*d[5mC]*dA*dG*d[5mC]*d[5mC]*dG*d[5mC]*dA*dT*dG*kG*k[5mC]*kT) [Compound 958745],YAP1 (% UTC),[6],78 % UTC
958491 (kA*k[5mC]*kT*dA*dA*dA*dT*dG*d[5mC]*dT*dG*dT*dG*kA*k[5mC]*kA; antisense) [Compound 958491],YAP1 (% UTC),[12],4 % UTC
1076436 (k[5mC]*kA*kT*dT*dA*d[5mC]*dT*dA*d[5mC]*dT*d[5mC]*dT*dG*kT*k[5mC]*k[5mC]; antisense) [compound 1076436],YAP1 (% UTC),[2],39 % UTC
958782 (antisense kA*kT*kG*dG*dT*d[5mC]*dT*d[5mC]*d[5mC]*d[5mC]*dA*dG*dT*k[5mC]*kA*k[5mC]) [Compound 958782],YAP1 (% UTC),[7],20 % UTC
958438 (antisense k[5mC]*kG*k[5mC]*d[5mC]*d[5mC]*d[5mC]*dG*dG*d[5mC]*dT*d[5mC]*d[5mC]*dA*k[5mC]*kT*kG) [Compound 958438],YAP1 (% UTC),[9],61 % UTC
1075788 (kT*k[5mC]*kT*dT*dA*dA*dG*dG*dA*dT*dT*dG*dG*k[5mC]*kT*kA; antisense) [compound 1075788],YAP1 (% UTC),[10],15 % UTC
1075342 (antisense kA*k[5mC]*kT*dA*dA*dA*dA*dG*dG*dG*dA*dG*dT*kA*kG*kG) [compound 1075342],YAP1 (% UTC),[8],87 % UTC
958355 (antisense k[5mC]*kG*kT*dT*dG*dG*d[5mC]*d[5mC]*dG*dT*d[5mC]*dT*dT*kG*kG*kG) [Compound 958355],YAP1 (% UTC),[1],51 % UTC
958728 (antisense kT*kA*kT*d[5mC]*dT*dG*dT*d[5mC]*dA*dG*dT*dT*dA*kT*k[5mC]*k[5mC]) [Compound 958728],YAP1 (% UTC),[9],10 % UTC
958508 (kG*kA*kG*dA*dG*d[5mC]*dA*dG*dA*dT*dA*dA*dT*k[5mC]*kG*kA; antisense) [Compound 958508],YAP1 (% UTC),[9],7 % UTC
1074668 (antisense kT*k[5mC]*k[5mC]*d[5mC]*dA*dA*d[5mC]*dA*dA*d[5mC]*dA*dT*dG*k[5mC]*kT*kA) [compound 1074668],YAP1 (% UTC),[10],20 % UTC
1075086 (antisense kA*kG*kT*dT*dA*dT*dA*dG*dA*d[5mC]*dT*dT*dT*kG*kT*kA) [compound 1075086],YAP1 (% UTC),[8],25 % UTC
1074415 (kG*k[5mC]*k[5mC]*dA*dA*d[5mC]*dT*dG*dT*dG*dA*dA*dA*kG*kA*kG; antisense) [compound 1074415],YAP1 (% UTC),[5],10 % UTC
